Assay results: paper PMC5855875, “Teixobactin analogues reveal enduracididine to be non-essential for highly potent antibacterial activity and lipid II binding” (Chemical Science, 2017)
≈ marks a conversion by molar mass, not a printed value. Read-outs that look alike come from different tables or passages of the source. Blank lines part the entries; values can stand above or below the compound they belong to. Bridge positions count the residues as written; N and C are the ends. Square brackets hold non-standard residues; d marks the D form. Peptide text beside a SMILES is read from it. d(aIle) = CC[C@H](C)[C@@H](N)C(=O)O; dNMeF = CN[C@H](Cc1ccccc1)C(=O)O

Columns and labels:
[1] = tested on: MRSA 2: MRSA DR 42412 (sputum); experiment: microbe, parasite or virus in culture
Experimental: (§1) VIII. MIC testing (extended panel)
(§2) Bacterial cultures were grown overnight i n Mueller-Hinton Agar (MHA) plates and adjusted to a final concentration of 10 5 – 106 CFU/ml. 100 µl of inoculum in Meuller -Hinton broth (MHB) was mixed with equal volume of peptides (dissolved in MHB) at 2x their concentration in a 96 well plate. In parallel experiments, MIC values were determined in the media containing polysorbate 80 (0 .002%, v/v) to […]
(§3) prevent non-specific adsorption of the peptides to plastic surfaces. The final peptides concentrations […]
(§4) Positive and negative controls contained 200 µl of inoculum without any peptide dissolved in broth, respectively. The 96 well plates were then incubated at 37 °C for 24 h. […]
(§5) 80. Strain information: MRSA 1: MRSA ATCC 700699, MRSA 2: MRSA DR 42412 (sputum), MRSA
(§6) 3: MRSA DM21455 (eye). […] Staphylococcus aureus ATCC

VRE 1: VRE ATCC 700802 = experiment: organism not typed
Experimental: as §1, §2, §3, §4, §5, §6

VRE 2: VRE ATCC 29212 = experiment: organism not typed
Experimental: as §1, §2, §3, §4, §5, §6

M. smegmatis ATCC 607 = experiment: microbe, parasite or virus in culture
Experimental: (§7) were grown in Mueller Hinton broth (Oxoid) in triplicate. All incubations were at 37°C. Dilutions were carried out in triplicate. 100 µl of autoclaved Mueller Hinton broth was added to wells 2-12 in a 96-well plate. 200 µl of the peptide was added to well one at a concentration of 256 µg/mL. 100µl of peptide in well one was taken up and pipetted into well two. The mixture was then mixed via pipetting before 100µl was taken up and pipetted into well three. This process was repeated up to well 11. Once […]
(§8) peptide present. Thus, the concentrations (in µg/mL) were: 256, 128, 64, 32, 16, 8, 4, 2, 1, 0.5, 0.25 and no peptide present. Each well was then inoculated with 100µl of bacteria that had been diluted to an […]
(§9) This was repeated three times. The 96-well plates were then incubated at 37°C for 24 hours. The MIC was determined to be the lowest concentration at which there was no growth visible. […]
(§10) was repeated at an altered initial concentration of 64 µg/ml. Therefore, the new concentrations for MIC […]
Middlebrook 7H9 broth (SIGMA) supplemented to 5% Middlebrook ADC (SIGMA) growth

MRSA DM21455 = experiment: Time-kill kinetics; assay type: cell-based, Methicillin-resistant Staphylococcus aureus
Experimental: IX. Time-dependent killing of bacteria by teixobactin analogues 12 and 13 Time-kill kinetics against MRSA DM21455 strains (clinical isolates from patients) was carried out in MHB. Cultures were grown overnight in MHA plates and adjusted to a final inoculum of 10^5 – 10^6 CFU/ml in MHB (containing 0.002% v/v, polysorbate 80) with teixobactin analogues 12 and 13 maintained at a final concentration of 0.5 µg/ml. For vancomycin, the concentration was varied from 0.5 – 16 µg/ml without polysorbate 80. The tubes were then incubated at 37 °C. 100 µl of cell suspension was withdrawn at various time points (0, 2, 4, 8, 24 h), serially diluted (101-105 fold dilutions) and plated onto a MHA plates and incubated for 24 h at 37 °C.
Colonies were then enumerated […]. Colony counting too numerous to count (>300 colonies) was taken as 1010 CFU. Average values from two independent experiments are reported. […]
(also on this page, place not known: polyso rbate vancomycin , concentr ation 80 . wer e µ l (10 1-105 10 10 previously n - TL C three S76: (Ala10-teixobactin) literature.7 Lipid II Lipid II: Compound 8 = 1:1 Lipid II: Compound 16 = 1:1 Lipid II: Compound 8 = 1:2 Lipid II: Compound 16 = 1:2 Lipid II: Compound 8 = 1:4)

[2] = tested on: Staphylococcus aureus ATCC 29213; experiment: microbe, parasite or virus in culture
Experimental: as §1, §2, §3
(§11) Positive and negative controls contained 200 µl of inoculum without any peptide dissolved in broth, respectively. The 96 well plates were then incubated at 37 °C for 24 h.
(§12) All the experiments were performed in two independent duplicates and the MIC was determined as the […]
(§13) Minimum bactericidal concentration
(§14) The lowest concentration in which no visible colonies could be detected was taken as the MBC.
as §5, §6

MRSA 1: MRSA ATCC 700699 = experiment: microbe, parasite or virus in culture
Experimental: as §1, §2, §3, §11, §12, §13, §14, §5, §6

[3] = tested on: MRSA 3: MRSA DM21455 (eye); experiment: microbe, parasite or virus in culture
Experimental: as §1, §2, §3, §11, §12, §13, §14, §5, §6

MRSA ATCC 33591 = experiment: microbe, parasite or virus in culture
Experimental: as §7, §8, §9, §10, §1, §2

[4] = Staphylococcus aureus, MRSA, 24 h
[5] = Staphylococcus aureus, MRSA, 24 h, read-out: MIC (with polysorbate 80)
[6] = Staphylococcus aureus, MRSA, 24 h, read-out: MIC (without polysorbate 80)
[7] = Enterococcus, 24 h, read-out: MIC (with polysorbate 80)
[8] = Enterococcus, 24 h, read-out: MIC (without polysorbate 80)

- MIC ([1]; 2: DR 42412 (sputum, 24 h)): ≤0.0625 μg mL^–1
- MIC (without polysorbate 80) ([1]; 2: DR 42412 (sputum, 24 h)): 2 µg/mL (≈ 1.66 µM)
- MIC (with polysorbate 80) ([1]; MRSA 2, MHB containing polysorbate 80 (0.002%, v/v), 37 °C, 24 h): ≤ 0.0625 µg/mL
- MIC (without polysorbate 80) (VRE 1: VRE ATCC 700802; ATCC 700802, 24 h): 1 µg/mL (≈ 0.832 µM)
- MIC (with polysorbate 80) (VRE 1: VRE ATCC 700802; VRE 1, MHB containing polysorbate 80 (0.002%, v/v), 37 °C, 24 h): ≤ 0.0625 µg/mL
- MIC (without polysorbate 80) (VRE 2: VRE ATCC 29212; ATCC 29212, 24 h): 1 µg/mL (≈ 0.832 µM)
- MIC (with polysorbate 80) (VRE 2: VRE ATCC 29212; VRE 2, MHB containing polysorbate 80 (0.002%, v/v), 37 °C, 24 h): ≤ 0.0625 µg/mL
- MIC (M. smegmatis ATCC 607; ATCC 607, 72 h): 0.5 μg mL^–1
- MIC ([2]; ATCC 29213, 24 h): ≤0.0625 μg mL^–1
- MIC (without polysorbate 80) ([2]; ATCC 29213, 24 h): 1 µg/mL (≈ 0.832 µM)
- MIC (with polysorbate 80) ([2]; S. aureus ATCC 29213, MHB containing polysorbate 80 (0.002%, v/v), 37 °C, 24 h): ≤ 0.0625 µg/mL
- MIC (MRSA 1: MRSA ATCC 700699; ATCC 700699, 24 h): 0.25 μg mL^–1
- MIC (without polysorbate 80) (MRSA 1: MRSA ATCC 700699; ATCC 700699, 24 h): 2 µg/mL (≈ 1.66 µM)
- MIC (with polysorbate 80) (MRSA 1: MRSA ATCC 700699; MRSA 1, MHB containing polysorbate 80 (0.002%, v/v), 37 °C, 24 h, two independent duplicates): 0.25 µg/mL (≈ 0.208 µM)
- MIC ([3]; 3: DM21455 (eye, 24 h)): ≤0.0625 μg mL^–1
- MIC (without polysorbate 80) ([3]; 3: DM21455 (eye, 24 h)): 2 µg/mL (≈ 1.66 µM)
- MIC (with polysorbate 80) ([3]; MRSA 3, MHB containing polysorbate 80 (0.002%, v/v), 37 °C, 24 h): ≤ 0.0625 µg/mL
- MIC (MRSA ATCC 33591; ATCC 33591, 24 h): 0.25 μg mL^–1
SMILES: CC[C@H](C)[C@@H]1NC(=O)[C@H](C)NC(=O)[C@H](NC(=O)[C@H](CO)NC(=O)[C@@H](NC(=O)[C@H](NC(=O)[C@@H](CCC(N)=O)NC(=O)[C@H](CO)NC(=O)[C@@H](NC(=O)[C@@H](Cc2ccccc2)NC)[C@@H](C)CC)[C@@H](C)CC)[C@@H](C)CC)[C@H](C)OC(=O)[C@H]([C@@H](C)CC)NC1=O [Compound 12, Ile10-teixobactin] (H-[dNMeF]IS[dQ][d(aIle)]IS[dT]AII; ester 8-C)
- time to complete bactericidal activity (MRSA DM21455; 0.5 μg mL^–1, MHB containing 0.002% v/v polysorbate 80, 37 °C, average of two independent experiments): ≤ 8 h
- MBC ([2]; Staphylococcus aureus ATCC 29213, plated on MHA, 37 °C, 24 h): 0.125 μg mL^–1
- MBC (MRSA 1: MRSA ATCC 700699; MRSA 1 (MRSA ATCC 700699), plated on MHA, 37 °C, 24 h): 1 μg mL^–1
- MBC ([3]; MRSA 3 (MRSA DM21455), plated on MHA, 37 °C, 24 h): 0.125 μg mL^–1

SMILES: CN[C@H](CC(C)C)C(=O)N[C@H]1C(=O)N[C@@H](CC(N)=O)C(=O)N[C@H]2C(=O)N[C@H]3C(=O)N[C@H](C(=O)N[C@H](C(=O)O)c4cc(O)cc(O)c4-c4cc3ccc4O)[C@H](O)c3ccc(c(Cl)c3)Oc3cc2cc(c3O[C@@H]2O[C@H](CO)[C@@H](O)[C@H](O)[C@H]2O[C@H]2C[C@](C)(N)[C@H](O)[C@H](C)O2)Oc2ccc(cc2Cl)[C@H]1O [Compound 18, Vancomycin, reference compound]
- MIC [1, 4]: 2 µg/mL (≈ 1.38 µM)
- MIC [1, 5]: 1 µg/mL (≈ 0.69 µM)
- MIC [1, 6]: 2 µg/mL (≈ 1.38 µM)
- MIC (VRE 1: VRE ATCC 700802): > 4 µg/mL
- MIC (VRE 1: VRE ATCC 700802; [7]): > 4 µg/mL
- MIC (VRE 1: VRE ATCC 700802; [8]): > 4 µg/mL
- MIC (VRE 2: VRE ATCC 29212): > 4 µg/mL
- MIC (VRE 2: VRE ATCC 29212; [7]): > 4 µg/mL
- MIC (VRE 2: VRE ATCC 29212; [8]): > 4 µg/mL
- MIC (M. smegmatis ATCC 607; Mycolicibacterium smegmatis, ATCC607, 72 h): > 64 µg/mL
- time-kill outcome (MRSA DM21455; 0.5 μg mL^–1, without polysorbate 80, 37 °C): substantial growth was observed
- concentration needed for similar effects as teixobactin analogues 12 & 13 in time-kill (MRSA DM21455; MRSA 21455, without polysorbate 80): 8 μg mL^–1
- MIC ([2]; Staphylococcus aureus, ATCC29213, 24 h, read-out: MIC (with polysorbate 80)): 2 µg/mL (≈ 1.38 µM)
- MIC ([2]; Staphylococcus aureus, ATCC29213, 24 h, read-out: MIC (without polysorbate 80)): 4 µg/mL (≈ 2.76 µM)
- MIC ([2]; Staphylococcus aureus, ATCC29213 / MSSA, 24 h): 4 µg/mL (≈ 2.76 µM)
- MIC (MRSA 1: MRSA ATCC 700699; Staphylococcus aureus, 24 h): 2 µg/mL (≈ 1.38 µM)
- MIC (MRSA 1: MRSA ATCC 700699; Staphylococcus aureus, ATCC700699|MRSA, 24 h, read-out: MIC (with polysorbate 80)): 1 µg/mL (≈ 0.69 µM)
- MIC (MRSA 1: MRSA ATCC 700699; Staphylococcus aureus, ATCC700699|MRSA, 24 h, read-out: MIC (without polysorbate 80)): 2 µg/mL (≈ 1.38 µM)
- MIC [3, 4]: 2 µg/mL (≈ 1.38 µM)
- MIC [3, 5]: 1 µg/mL (≈ 0.69 µM)
- MIC [3, 6]: 2 µg/mL (≈ 1.38 µM)
- MIC (MRSA ATCC 33591; Staphylococcus aureus, 24 h): 2 µg/mL (≈ 1.38 µM)
